From patent publication US20110287547A1, “NUCLEIC ACID DELIVERY COMPOSITIONS AND METHODS” (priority 2008, published 2011)
In brackets after ≈: the same amount, converted by molar mass. Read-outs that look alike come from different tables or passages of the source. Where a SMILES comes first, the peptide text is derived from it.

Legend:
[1] = Cytotoxicity Assay (MTS Assay), Example 1 and CPPs; format: cell-based, human; details: human
Protocol: (§1) Cell Culture. Culturing of human epithelial lung cell line A549 was performed according to the protocol provided by the American Type Culture Collection. A549 was grown in F-12K supplemented with 10% v/v FBS and 1% v/v Penicillin/streptomycin at 37° C. in a humidified air atmosphere containing 5% CO2.
(§2) Cytotoxicity Assay (MTS Assay). […] A549 cells were grown as described in the transfection experiments. Cells were treated with the samples for approximately 24 hours. […] The cells were incubated for 3 hours at 37° C. in the 5% CO2 incubator. The absorbance of each well was then measured at 490 nm using a microtiter plate reader (SpectraMax, M25, Molecular Devices Corp., CA) to determine cell viability.

A549 cells [2] = experiment: Cytotoxicity assay (MTS), Example 2; details: 46.9 mM CaCl2 only or in the complex
Protocol: (§5) Cytoxicity Assay. Cytotoxicity of the complexes was determined by the CellTiter 96® Aqueous Cell Proliferation Assay kit (MTS assay) from Promega. A549 cells were plated on 96-well plates with approximately 8,000 cells/well and incubated in a humid 5% CO2 incubator at 37° C. After 18-24 hours incubation, the medium was removed and the cells were washed with 100 μl serum free medium. Cells were treated with the samples for 12-24 hours. The serum free medium were then removed and replaced with a mixture of 100 μl fresh culture medium and 20 μl MTS reagent solution. The cells were incubated for 1-4 hours at 37° C. in 5% CO2 incubator. Cell viability was assessed by measuring the absorbance at 490 nm by plate reader (SpectraMax M5) and expressed as the ratio of the A490 of cells treated with inhibitors over the control samples.

A549-luc-C8 cells = experiment: Assessment of cytotoxicity (MTS Assay), Example 4; format: cell-based, human; details: 24 hours, up to 5 mg/mL
Protocol: (§3) Cell culture. Culturing of human epithelial lung cell line A549-luc-C8, stably expressing luciferase, was performed according to the protocol provided by Caliper LifeSciences. A549-luc-C8 cells were grown in RPMI-1640 supplemented with 10% v/v heat inactivated FBS and 1% v/v Penicillin/streptomycin at 37° C. in a humidified air atmosphere containing 5% CO2.
(§4) Assessment of cytotoxicity (MTS Assay). […] A549-luc-C8 cells were grown as described in the transfection experiments. Cells were treated with the TAT, dTAT or PEI for approximately 24 hours. […] The cells were incubated for 3 hours at 37° C. in the 5% CO2 incubator. The absorbance of each well was then measured at 490 nm using a microtiter plate reader (SpectraMax, M25, Molecular Devices Corp., CA) to determine cell viability.

A549 cells [3] = experiment: Cytotoxicity Assay (MTS Assay), Example 1 and CPPs; format: cell-based, human; details: A549 cells, MTS
Protocol: as §1, §2

[4] = Assessment of cytotoxicity (MTS Assay), Example 4; format: cell-based, human; details: human, A549-luc-C8 cells, up to 5 mg/mL
Protocol: as §3, §4

Balb/C mice = details: 200 μL tail vein, Balb/C mouse
Protocol: Assessment of toxicity in vivo. Stock solutions of 0.3 M CaCl2, 10% Glucose, and 174 mg/ml dTAT were prepared. Non-silencing control siRNA (Dharmacon; Sense: […]tt; SEQ ID NO 16, Antisense: […]tt; SEQ ID NO 17) was dissolved in nuclease-free water (61.5 nM). The dTAT/siRNA complexes were prepared in 1.5 ml microcentrifuge tubes by mixing stock solutions (at concentrations indicated above). Formulation 1 used 15 μL of dTAT, 10 μL siRNA, 25 μL Glucose, and 5 μl CaCl2. Each ingredient was added to the previous component(s) and mixed by pipetting between each addition. Four of these formulas were individually prepared and kept at 4° C. for 20 minutes, then kept at room temperature for 5 minutes prior to injection. Remaining formulations (2-10) were prepared by a serial 1:2 dilution of stock siRNA solution and stock dTAT solution following the same experimental protocol as described above. The dTAT/siRNA complexes (volume=260 μl) were prepared for each individual animal and each 0.2 mL injection volume contained approximately the following amounts of dTAT peptide (mg/ml): 40, 20, 10, 5, 2.5, 1.25, 0.64, 0.32, 0.16, 0. Each formulation was administered via 200 μL injection into the tail vein of 12 week old male Balb/C mice (10 animals total).
In vivo dose escalating toxicity study. […] A dose escalating study was conducted in an effort to establish a lethal dose (LD50) for the dTAT peptide. For these studies, only a minimal amount of siRNA was included so that animal responses would be indicative of the toxicity of dTAT. Animals were administered the formulations via tail vein injection (200 μL) at doses up to 1,000 mg/kg of dTAT (Table 5).

A549 cells [5] = experiment: In vitro cell transfection (pGL3 luciferase gene expression), Example 1 method; format: cell-based, human; details: 1 day after transfection, 75, 150, 300 mM CaCl2, varying N/P ratios
Protocol: Particles of nano-sized TAT-Ca complexes were synthesized by rapidly adding and stirring 10 μL of either (0.1 μg/μL) pDNA or (30-50 nM) siRNA to 15 μL (1 μg/μL) of the TAT solution. To this solution, 15 μL of CaCl2 of known molarity (e.g. 0.3 M) was added and mixed by vigorous pipetting followed by 20-30 minutes incubation at room temperature or at 4° C. prior to use.
Preparation of PEI/pDNA Complexes. Polyethylenimine-DNA Complexes were prepared by adding 10 μl (0.1 μg/μL) of pDNA solution to 15 μL (N/P ratio of 5 or 10) polyethylenimine (PEI) solution drop-wise while stirring. Complexes were incubated at room temperature for 20-30 minutes before dilution 1.7 times (15 μL) with the appropriate buffer (e.g. nuclease-free water or CaCl2). Complexes were freshly prepared before each individual experiment.
In Vitro Cell Transfection Studies. A549 cells were trypsinized, counted and diluted to a concentration of approximately 80,000 cells/mL. Then 0.1 mL of that dilution was added to each well of a 96-well plate and the cells were incubated in a humidified atmosphere of 5% CO2 incubator at 37° C. for 24 hours. Immediately before transfection, the cells were washed once with PBS and 100 μl sample (20% of complex to 80% of serum free cell culture medium) was added to each well. Cells were incubated with the complexes for 5 hours. The transfection agent was then removed by aspiration and 100 μL of fresh serum medium was added followed by further incubation. The Luciferase Assay System from Promega was used to determine gene expression following the manufacturer's recommended protocol. The light units were normalized against protein concentration in the cells extracts, which were measured using the Coomassie Plus™ Protein Assay (Thermo Scientific). The transfection results were expressed as Relative Light Units (RLU) per mg of cellular protein.

A549 cells [6] = system: A549 cells
Protocol: as §5

CSCC[C@H](NC(=O)[C@H](CCCCN)NC(=O)[C@H](Cc1c[nH]c2ccccc12)NC(=O)[C@H](CCCCN)NC(=O)[C@@H](N)CCCCN)C(=O)N[C@@H](CCCNC(=N)N)C(=O)N[C@@H](CCCNC(=N)N)C(=O)N[C@@H](CC(N)=O)C(=O)N[C@@H](CCC(N)=O)C(=O)N[C@@H](Cc1ccccc1)C(=O)N[C@@H](Cc1c[nH]c2ccccc12)C(=O)N[C@H](C(=O)N[C@@H](CCCCN)C(=O)N[C@H](C(=O)N[C@@H](CCC(N)=O)C(=O)N[C@@H](CCCNC(=N)N)C(=O)NCC(=O)O)C(C)C)C(C)C [Alp] (H-KKWKMRRNQFWVKVQRG-OH)
IC50 at 24 h [1]: ~2140 µg/mL (≈ 942 µM)

[Ca+2].[Cl-].[Cl-] [CaCl2, Calcium chloride]
cytotoxicity (A549 cells [2]): did not show cytotoxicity

N=C(N)NCCC[C@H](NC(=O)[C@H](CCCNC(=N)N)NC(=O)[C@H](CCCNC(=N)N)NC(=O)[C@H](CCC(N)=O)NC(=O)[C@H](CCCNC(=N)N)NC(=O)[C@H](CCCNC(=N)N)NC(=O)[C@H](CCCCN)NC(=O)[C@H](CCCCN)NC(=O)[C@@H](N)CCCNC(=N)N)C(N)=O [TAT]
cytotoxicity (A549-luc-C8 cells): almost no evidence of cytotoxicity | cytotoxic effects (A549 cells [3]): no evidence of cytotoxic effects

N=C(N)NCCC[C@H](NC(=O)[C@H](CCCCN)NC(=O)[C@H](CCCCN)NC(=O)[C@H](CCCNC(=N)N)NC(=O)[C@H](CCCNC(=N)N)NC(=O)[C@H](Cc1c[nH]cn1)NC(=O)[C@H](CCCNC(=N)N)NC(=O)[C@H](CCCNC(=N)N)NC(=O)[C@H](CCCNC(=N)N)NC(=O)[C@H](CCC(N)=O)NC(=O)[C@H](CCCNC(=N)N)NC(=O)[C@H](CCCNC(=N)N)NC(=O)[C@H](CCCCN)NC(=O)[C@H](CCCCN)NC(=O)[C@@H](N)CCCNC(=N)N)C(=O)O [dTAT] (H-RKKRRQRRRHRRKKR-OH)
IC50 at 24 h [4]: ~4000 µg/mL (≈ 1820 µM) | Toxicity/Behavioral Effects (Balb/C mice; dTAT 0.16 mg/mL, total dose 3.90 mg/Kg, siRNA 0.03 nM): Normal | Toxicity/Behavioral Effects (Balb/C mice; dTAT 0.32 mg/mL, total dose 7.81 mg/Kg, siRNA 0.07 nM): Normal | Toxicity/Behavioral Effects (Balb/C mice; dTAT 0.64 mg/mL, total dose 15.63 mg/Kg, siRNA 0.14 nM): Normal | Toxicity/Behavioral Effects (Balb/C mice; dTAT 1.25 mg/mL, total dose 31.25 mg/Kg, siRNA 0.29 nM): Normal | Toxicity/Behavioral Effects (Balb/C mice; dTAT 2.5 mg/mL, total dose 62.5 mg/Kg, siRNA 0.59 nM): Normal | Toxicity/Behavioral Effects (Balb/C mice; dTAT 5 mg/mL, total dose 125 mg/Kg, siRNA 1.18 nM): Normal | Toxicity/Behavioral Effects (Balb/C mice; dTAT 10 mg/mL, total dose 250 mg/Kg, siRNA 2.36 nM): Normal | Toxicity/Behavioral Effects (Balb/C mice; dTAT 20 mg/mL, total dose 500 mg/Kg, siRNA 4.73 nM): Normal

H-RKKRRHRRR-NH2 [TAT2]
added CaCl2 concentration at which complexes showed a higher level of gene expression (A549 cells [5]): 150 mM

H-RKKRRQHRRR-NH2 [TAT3]
added CaCl2 concentration at which complexes showed a higher level of gene expression (A549 cells [5]): 150 mM

H-RKKRRQRRRHRRKKR-NH2 [TAT5]
added CaCl2 concentration at which complexes showed a higher level of gene expression (A549 cells [5]): 300 mM

H-RRKRRQHRRR-NH2 [TAT4]
added CaCl2 concentration at which complexes showed a higher level of gene expression (A549 cells [5]): 150 mM

protamine
IC50 (cytotoxicity) (A549 cells [6]): 890 µg/mL
